Patent publication US12636279B2, “Choline salt forms of an HIV capsid inhibitor” (Gilead Sciences, Inc., priority 2017, dated 2026)

How the values were obtained:
[1] = system: Human Liver Hepatocytes; assay: Test D: Metabolic Stability in Cultured Human Liver Hepatocytes; type: in vitro ADME; conditions: pooled cryopreserved human hepatocytes, […] radiolabelled compound, 1 million cells/mL, 0-6 hours; calculated from stability data
Protocol: Test D. Metabolic Stability in Cultured Human Liver Hepatocytes
The final hepatocyte concentration was 1 million cells/mL. The hepatocyte/compound reaction mixture was dissolved in InVitroGRO™ KHB buffer (catalog #Z99074, BioreclamationIVT, Inc., Baltimore, MD) at pH 7.4. The incubations were performed in duplicate. A cell free control and a positive control were included in the incubations. The incubations were carried out with gentle shaking in a 37° C. incubator under a humid atmosphere of 95% air/5% CO2 (v/v). Aliquots (100 mL) were removed after 0, 1, 3, and 6 hours and added to 200 mL quenching solution that comprised 0.1% (v/v) TFA in 5% water/95% acetonitrile (v/v). The samples were placed on a shaker for 10 min, followed by centrifugation at 3000 g for 30 min. The samples of the supernatant were analyzed on a Dionex HPLC/PerkinElmer Flow Scintillation Analyzer as described below.
The column was a Phenomenex Synergi fusion RP (150×4.6 mm, 4 mm) maintained at 32 degrees Celsius. Mobile Phase A consisted of 0.1% (v/v) TFA in 99% water/1% acetonitrile (v/v). Mobile Phase B consisted of 0.1% (v/v) TFA in 5% water/95% acetonitrile (v/v). […]
Metabolic stability was determined by measuring the change in relative abundance of metabolites and parent over time and calculating from it the rate of disappearance of the parent compound. […]

[2] = Atropisomer equilibrium and interconversion in solution; type: physicochemical; conditions: rotation along C—C bond between atropisomers
[3] = system: HIV-IIIb; assay: Test A: Antiviral Assay in MT4 Cells; type: cell-based, HIV-1; conditions: Human immunodeficiency virus 1, IIIB, MT4, 120 h
Protocol: 1 mL Aliquots of MT4 cells were pre-infected for 3 hours at 37° C. with 25 μL of cell growth medium (mock-infected) or a fresh 1:250 dilution of an HIV-IIIb concentrated ABI stock (0.004 m.o.i.). Infected and uninfected cells were diluted in cell growth media and 35 μL (2000 cells) was added to each well of the assay plates.
Assay plates were then maintained in a humidified, 5% CO2 incubator at 37° C. After 5 days of incubation, 25 μL of 2× concentrated CellTiter-Glo™ Reagent (catalog #G7573, Promega Biosciences, Inc., Madison, WI) was added to each well of the assay plate. Cell lysis was carried out by incubating at room temperature for 10 minutes and then chemiluminescence was read using an Envision plate reader (PerkinElmer).

Row | Predicted Human Hepatic Clearance [1] [mL/min/kg] | rotational energy barrier [2] | EC50 [3] [nM] | Compound
1 | 0.17 | about 24 kcal/mol | – | CC(C)(C#Cc1ccc(-c2ccc(Cl)c3c(NS(C)(=O)=O)nn(CC(F)(F)F)c23)c([C@H](Cc2cc(F)cc(F)c2)NC(=O)Cn2nc(C(F)(F)F)c3c2C(F)(F)[C@@H]2C[C@H]32)n1)S(C)(=O)=O [Compound 1, N—((S)-1-(3-(4-Chloro-3-(methylsulfonamido)-1-(2,2,2-trifluoroethyl)-1H-indazol-7-yl)-6-(3-methyl-3-(methylsulfonyl)but-1-yn-1-yl)pyridin-2-yl)-2-(3,5-difluorophenyl)ethyl)-2-((3bS,4aR)-5,5-difluoro-3-(trifluoromethyl)-3b,4,4a,5-tetrahydro-1H-cyclopropa[3,4]cyclopenta[1,2-c]pyrazol-1-yl)acetamide]
2 | – | – | 2.99 | Cn1nc(NS(C)(=O)=O)c2c(Cl)ccc(-c3ccc(C#CC(C)(C)O)nc3[C@H](Cc3cc(F)cc(F)c3)NC(=O)Cn3nc(C(F)(F)F)c4c3C(F)(F)[C@@H]3C[C@H]43)c21 [Compound B]
